The text below walks through data of ChEMBL document CHEMBL5512638, “Novel pyrrole based CB2 agonists: New insights on CB2 receptor role in regulating neurotransmitters' tone” (Eur J Med Chem, 2024).

Data set [1] is described as follows: Chemical stability of compound in phosphate buffer at pH 7.4 assessed as compound remaining at 5 uM measured after 1 hrs by UHPLC-MS analysis. The format is physicochemical. The settings on record: read-out: Stability.
Data set [2] deals with T1, Cannabinoid receptor 2 (Homo sapiens, UniProt P34972). Kind of data set: Displacement of [3H]CP55940 from recombinant human CB2 receptor expressed in HEK293 cell membrane assessed as inhibition constant incubated for 90 mins by competition binding assay. The format is cell membranes. To be noted: read-out: Ki. In general terms: Loss of bound radioactivity is the signal in a displacement assay; it reports binding, not function.

A short description of data set [3]: Chemical stability of compound in phosphate buffer at pH 7.4 assessed as compound remaining at 5 uM measured after 0.5 hrs by UHPLC-MS analysis. It is filed as physicochemical. To be noted: read-out: Stability.
Data set [4] can be described thus: Chemical stability of compound in phosphate buffer at pH 7.4 assessed as compound remaining at 5 uM measured after 1.5 hrs by UHPLC-MS analysis. The format is physicochemical. To be noted: read-out: Stability.
In data set [5] the target is T2, Cannabinoid receptor 1 (Homo sapiens, UniProt P21554). The experiment in a line: Displacement of [3H]CP55940 from recombinant human CB1 receptor expressed in HEK293 cell membrane incubated for 90 mins by competition binding assay. The settings on record: read-out: IC50. It is filed as cell membranes.
The target of data set [6] is T1, Cannabinoid receptor 2. Kind of data set: Displacement of [3H]CP55940 from recombinant human CB2 receptor expressed in HEK293 cell membrane incubated for 90 mins by competition binding assay. It is filed as cell membranes. The settings on record: read-out: IC50.
A short description of data set [7]: Chemical stability of compound in phosphate buffer at pH 7.4 assessed as compound remaining at 5 uM measured after 2 hrs by UHPLC-MS analysis. The format is physicochemical. To be noted: read-out: Stability.
Data set [8] deals with T2, Cannabinoid receptor 1. The experiment in a line: Displacement of [3H]CP55940 from recombinant human CB1 receptor expressed in HEK293 cell membrane assessed as inhibition constant incubated for 90 mins by competition binding assay. The settings on record: read-out: Ki. It is filed as cell membranes.
Data set [9] deals with T1, Cannabinoid receptor 2. The experiment in a line: Agonist activity at human CB2 receptor expressed in CHO-K1 cells assessed as reduction in NKH-477 induced cAMP production by chemiluminescence based cAMP hunter assay. The format is functional, cell-based. A general note: Cyclic AMP is a second messenger, typically raised through Gs and lowered through Gi signalling.
Data set [10] deals with T1, Cannabinoid receptor 2. The experiment in a line: Partial agonist activity at human CB2 receptor expressed in CHO-K1 cells assessed as reduction in NKH-477 induced cAMP production by chemiluminescence based cAMP hunter assay. The format is functional, cell-based.
For data set [11], the target named is T1, Cannabinoid receptor 2. The experiment in a line: Partial agonist activity at human CB2 receptor expressed in CHO-K1 cells assessed as reduction in NKH-477 induced cAMP production by measuring maximal efficacy by chemiluminescence based cAMP hunter assay relative to control. It is filed as functional, cell-based. To be noted: filed as partial agonist.
The subject of data set [12] is Mus musculus. The experiment in a line: Cognitive enhancing activity in scopolamine induced amnesia male C57/BL6J mouse model assessed as novel arm exploration time at 1 mg/kg, ip preadministered with compound for 10 mins followed by scopolamine administration for 30 mins and measured after 30 mins by Y-maze test (reference value: 9.28 +/- 1.03 sec). To be noted: time 70 min, 1.167 h. It is filed as functional.

Data set [13] has as its system Mus musculus. Kind of data set: Cognitive enhancing activity in scopolamine induced amnesia male C57/BL6J mouse model assessed as latency time to enter novel arm at 1 mg/kg, ip preadministered with compound for 10 mins followed by scopolamine administration for 30 mins and measured after 30 mins by Y-maze test (reference value: 21.93 +/- 0.78 sec). It is filed as functional. The settings on record: time 70 min, 1.167 h.

Another data set is filed under the species Homo sapiens. The experiment in a line: Selectivity ratio of Ki for displacement of [3H]CP55940 from recombinant human CB2 receptor expressed in HEK293 cell membrane to Ki for displacement of [3H]CP55940 from recombinant human CB1 receptor expressed in HEK293 cell membrane. The format is cell membranes.

T2 sequence (P21554 whole entry): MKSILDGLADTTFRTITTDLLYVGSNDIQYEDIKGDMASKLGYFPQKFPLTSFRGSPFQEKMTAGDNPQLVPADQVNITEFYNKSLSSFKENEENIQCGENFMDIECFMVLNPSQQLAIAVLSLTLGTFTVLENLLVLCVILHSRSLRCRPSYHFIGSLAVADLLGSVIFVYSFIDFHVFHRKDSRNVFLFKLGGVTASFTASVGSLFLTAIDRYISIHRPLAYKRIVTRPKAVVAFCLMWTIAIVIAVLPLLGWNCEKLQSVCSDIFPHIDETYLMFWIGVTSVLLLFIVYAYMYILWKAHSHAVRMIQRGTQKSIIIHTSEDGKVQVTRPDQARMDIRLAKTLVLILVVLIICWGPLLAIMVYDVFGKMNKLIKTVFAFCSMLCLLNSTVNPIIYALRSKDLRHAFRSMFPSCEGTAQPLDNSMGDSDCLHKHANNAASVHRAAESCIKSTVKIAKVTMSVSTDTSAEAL
T1 sequence (P34972 whole entry): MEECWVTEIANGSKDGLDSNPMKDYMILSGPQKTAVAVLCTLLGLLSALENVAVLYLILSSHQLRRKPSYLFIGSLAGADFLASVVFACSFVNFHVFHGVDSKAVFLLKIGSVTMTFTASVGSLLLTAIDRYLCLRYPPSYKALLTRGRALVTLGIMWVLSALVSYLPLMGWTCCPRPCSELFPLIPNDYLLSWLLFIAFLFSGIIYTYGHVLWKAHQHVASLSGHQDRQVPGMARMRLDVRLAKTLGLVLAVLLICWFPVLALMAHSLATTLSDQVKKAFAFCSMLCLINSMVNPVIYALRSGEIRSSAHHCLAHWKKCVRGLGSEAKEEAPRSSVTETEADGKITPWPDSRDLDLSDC

The Ki is a measure of affinity in units of concentration, obtained from inhibition or displacement. What is called IC50 is the midpoint of a concentration-inhibition curve. The term EC50 denotes the concentration needed to bring the measured effect to its halfway point. Regarding `O=C(NC12CC3CC(CC(C3)C1)C2)c1cccn1Cc1ccc(F)cc1`, in data set [1], the remaining at 1 h, 5 µM stood at 98.8%. Besides, the values for the Ki at Cannabinoid receptor 2 [2] and at Cannabinoid receptor 1 [8] were 0.01 µM and above 10 µM, respectively. In addition, the remaining at 0.5 h, 5 µM in data set [3] was determined as 98.6%. For the same compound, the remaining at 1.5 h, 5 µM in [4] was 99.2%. The IC50 was above 10 µM on Cannabinoid receptor 1 [5] and 0.07 µM on Cannabinoid receptor 2 [6]. The remaining at 2 h, 5 µM in [7] turned out to be 102%. In addition, the EC50 on Cannabinoid receptor 2 [9] was 2.36 µM.
For orientation: Emax means the size of the effect at its maximum, as opposed to the concentration needed. As to `O=C(Nc1cccc2ccccc12)c1cccn1Cc1ccc(F)cc1`, the remaining at 1 h, 5 µM in data set [1] was 101%. Also, the values for the inhibition constant Ki at Cannabinoid receptor 2 [2] and at Cannabinoid receptor 1 [8] were 0.06 µM and above 10 µM, respectively. For the same compound, the remaining at 0.5 h, 5 µM in data set [3] is 101%. In [4], the remaining at 1.5 h, 5 µM was 103%. The IC50 was above 10 µM on Cannabinoid receptor 1 [5] and 0.39 µM at Cannabinoid receptor 2 [6]. For the same compound, the remaining at 2 h, 5 µM in data set [7] stood at 99.2%. Moreover, at Cannabinoid receptor 2 [10], the EC50 turned out to be 6.11 µM. In addition, the Emax on Cannabinoid receptor 2 [11] worked out at 43.1%.
`Cc1c(C(=O)NN2CCCCC2)nn(-c2ccc(Cl)cc2Cl)c1-c1ccc(I)cc1`: the Time was 28.6 s in the data set with Mus musculus [12] and 11.01 s in the data set on Mus musculus [13].
As to `CCCC(C)(C)c1ccc2c(c1)OC(C)(C)[C@@H]1CC=C(C)C[C@@H]21`, the figures for the Ki at Cannabinoid receptor 2 [2] and at Cannabinoid receptor 1 [8] were 0.005 µM and 0.281 µM, respectively. The EC50 on Cannabinoid receptor 2 [9] was found to be 0.09 µM.
Regarding `Cc1ccc(NC(=O)c2cccn2Cc2ccc(F)cc2)cc1`, the Ratio Ki in the data set listed under Homo sapiens came to 5. In addition, the results for the Ki on Cannabinoid receptor 2 [2] and at Cannabinoid receptor 1 [8] were 0.27 µM and 1.03 µM, respectively. Also, the half-inhibitory concentration (IC50) worked out at 6.13 µM on Cannabinoid receptor 1 [5] and 1.32 µM on Cannabinoid receptor 2 [6].
As for `COc1ccc(C(=O)c2c(C)n(CCN3CCOCC3)c3cc(I)ccc23)cc1`, in the data set with Mus musculus [13], the Time is given as 9.28 s.
For the compound `CCCCCNC(=O)c1cccn1Cc1ccc(F)cc1`, the inhibition constant Ki on Cannabinoid receptor 2 [2] and at Cannabinoid receptor 1 [8] was above 10 µM throughout. Besides, the IC50 at Cannabinoid receptor 1 [5] and at Cannabinoid receptor 2 [6] was above 10 µM each time.
